Measured values reported in ChEMBL document CHEMBL5291721, “A preclinical secondary pharmacology resource illuminates target-adverse drug reaction associations of marketed drugs” (Nat Commun, 2023).

Assays:
[1] = biological target: T1, Gamma-aminobutyric acid receptor subunit alpha-1/alpha-2/beta-2/gamma-2 (Homo sapiens, UniProt P14867+P18507+P47869+P47870); type: functional, cell-based
[2] = biological target: T1, Gamma-aminobutyric acid receptor subunit alpha-1/alpha-2/beta-2/gamma-2; type: functional, cell-based; remark: listed apart in the source
Androgen receptor [3] = biological target: T2, Androgen receptor (Rattus norvegicus, UniProt P15207); type: functional
T2 sequence (P15207 whole entry): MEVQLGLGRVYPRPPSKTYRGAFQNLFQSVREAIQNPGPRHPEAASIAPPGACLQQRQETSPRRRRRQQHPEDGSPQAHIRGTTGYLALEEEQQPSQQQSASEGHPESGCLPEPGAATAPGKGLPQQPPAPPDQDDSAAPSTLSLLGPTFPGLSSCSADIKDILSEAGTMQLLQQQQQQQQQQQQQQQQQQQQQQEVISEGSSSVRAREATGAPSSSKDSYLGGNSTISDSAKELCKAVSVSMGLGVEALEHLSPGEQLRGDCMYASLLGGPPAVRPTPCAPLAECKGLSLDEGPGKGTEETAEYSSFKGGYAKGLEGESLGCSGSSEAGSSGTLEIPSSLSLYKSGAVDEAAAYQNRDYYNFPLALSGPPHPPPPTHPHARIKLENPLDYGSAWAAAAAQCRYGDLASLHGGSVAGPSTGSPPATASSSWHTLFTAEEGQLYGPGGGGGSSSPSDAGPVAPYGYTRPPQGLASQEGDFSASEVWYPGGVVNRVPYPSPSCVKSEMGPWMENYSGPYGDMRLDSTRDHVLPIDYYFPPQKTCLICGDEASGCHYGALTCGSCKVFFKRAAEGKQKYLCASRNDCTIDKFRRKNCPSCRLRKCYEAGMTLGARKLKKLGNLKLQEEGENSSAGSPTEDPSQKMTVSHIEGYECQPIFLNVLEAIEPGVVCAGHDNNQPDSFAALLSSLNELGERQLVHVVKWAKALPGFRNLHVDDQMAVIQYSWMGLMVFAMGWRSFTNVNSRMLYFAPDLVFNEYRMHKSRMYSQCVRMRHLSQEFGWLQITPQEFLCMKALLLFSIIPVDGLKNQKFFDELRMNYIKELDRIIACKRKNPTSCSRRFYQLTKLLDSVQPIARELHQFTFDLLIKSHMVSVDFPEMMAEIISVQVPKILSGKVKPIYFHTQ

Androgen receptor [4] = biological target: T2, Androgen receptor; type: functional; remark: listed apart in the source
Androgen receptor [5] = biological target: T2, Androgen receptor
[6] = biological target: 5-hydroxytryptamine receptor 5A (Homo sapiens, UniProt P47898)
[7] = biological target: T3, Muscarinic acetylcholine receptor M4 (Homo sapiens, UniProt P08173)
T3 sequence (P08173 whole entry): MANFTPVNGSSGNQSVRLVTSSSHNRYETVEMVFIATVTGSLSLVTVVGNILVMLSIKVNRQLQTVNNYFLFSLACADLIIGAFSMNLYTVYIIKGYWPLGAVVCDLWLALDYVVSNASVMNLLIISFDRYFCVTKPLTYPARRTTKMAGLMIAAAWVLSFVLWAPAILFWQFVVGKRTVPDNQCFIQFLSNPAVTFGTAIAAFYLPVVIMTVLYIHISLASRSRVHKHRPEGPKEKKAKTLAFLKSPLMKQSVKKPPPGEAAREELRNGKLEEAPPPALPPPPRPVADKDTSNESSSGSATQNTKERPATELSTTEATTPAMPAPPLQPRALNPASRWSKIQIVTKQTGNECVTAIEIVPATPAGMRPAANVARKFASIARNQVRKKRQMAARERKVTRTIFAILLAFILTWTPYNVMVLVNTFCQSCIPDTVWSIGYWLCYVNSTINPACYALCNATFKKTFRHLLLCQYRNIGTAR

[8] = biological target: Rod cGMP-specific 3',5'-cyclic phosphodiesterase subunit alpha (Homo sapiens, UniProt P16499); type: functional
[9] = biological target: Gamma-aminobutyric acid type B receptor subunit 1 (Homo sapiens, UniProt Q9UBS5)
[10] = biological target: 5-hydroxytryptamine receptor 7 (Homo sapiens, UniProt P34969)
[11] = biological target: 5-hydroxytryptamine receptor 6 (Homo sapiens, UniProt P50406)
[12] = biological target: T4, Alpha-2A adrenergic receptor (Homo sapiens, UniProt P08913)
T4 sequence (P08913 whole entry): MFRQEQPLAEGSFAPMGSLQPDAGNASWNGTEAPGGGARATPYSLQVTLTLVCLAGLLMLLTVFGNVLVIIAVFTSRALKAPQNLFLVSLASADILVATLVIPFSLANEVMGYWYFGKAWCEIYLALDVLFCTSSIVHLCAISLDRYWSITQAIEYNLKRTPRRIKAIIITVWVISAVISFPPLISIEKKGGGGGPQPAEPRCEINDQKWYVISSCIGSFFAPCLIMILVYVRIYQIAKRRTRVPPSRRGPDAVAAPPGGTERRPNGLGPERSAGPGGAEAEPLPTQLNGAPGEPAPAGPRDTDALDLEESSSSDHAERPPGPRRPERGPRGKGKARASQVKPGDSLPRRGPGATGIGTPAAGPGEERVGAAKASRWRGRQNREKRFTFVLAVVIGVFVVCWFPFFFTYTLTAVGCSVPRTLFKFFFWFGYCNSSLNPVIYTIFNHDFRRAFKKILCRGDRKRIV

[13] = biological target: T5, Muscarinic acetylcholine receptor M1 (Homo sapiens, UniProt P11229)
T5 sequence (P11229 whole entry): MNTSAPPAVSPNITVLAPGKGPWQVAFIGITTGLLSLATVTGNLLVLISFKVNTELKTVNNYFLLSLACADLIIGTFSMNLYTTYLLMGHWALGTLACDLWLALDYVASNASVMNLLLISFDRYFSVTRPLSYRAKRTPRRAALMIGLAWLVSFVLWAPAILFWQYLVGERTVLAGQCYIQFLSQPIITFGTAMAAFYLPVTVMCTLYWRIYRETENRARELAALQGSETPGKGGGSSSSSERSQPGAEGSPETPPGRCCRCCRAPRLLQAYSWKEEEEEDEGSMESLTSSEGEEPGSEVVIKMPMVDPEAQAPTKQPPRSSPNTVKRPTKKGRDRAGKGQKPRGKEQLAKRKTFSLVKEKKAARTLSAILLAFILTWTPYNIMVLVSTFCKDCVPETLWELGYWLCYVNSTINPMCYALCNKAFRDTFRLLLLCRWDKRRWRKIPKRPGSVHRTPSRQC

[14] = biological target: Sodium channel protein type 5 subunit alpha (Homo sapiens, UniProt Q14524); type: functional, cell-based
Note: assay procedure not described here.

T1 sequence (P14867 whole entry): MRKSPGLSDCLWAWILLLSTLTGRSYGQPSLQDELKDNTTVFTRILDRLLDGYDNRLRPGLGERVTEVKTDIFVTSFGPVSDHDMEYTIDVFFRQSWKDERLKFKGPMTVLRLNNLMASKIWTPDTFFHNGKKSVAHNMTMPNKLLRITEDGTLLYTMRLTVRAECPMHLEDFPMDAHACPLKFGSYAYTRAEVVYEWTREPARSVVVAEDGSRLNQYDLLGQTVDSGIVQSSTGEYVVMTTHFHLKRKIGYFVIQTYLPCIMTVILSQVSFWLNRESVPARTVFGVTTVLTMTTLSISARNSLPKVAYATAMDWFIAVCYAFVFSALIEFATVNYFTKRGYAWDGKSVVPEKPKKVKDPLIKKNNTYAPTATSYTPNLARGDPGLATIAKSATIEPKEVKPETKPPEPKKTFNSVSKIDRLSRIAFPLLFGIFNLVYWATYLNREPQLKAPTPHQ
T1 sequence (P47870 whole entry): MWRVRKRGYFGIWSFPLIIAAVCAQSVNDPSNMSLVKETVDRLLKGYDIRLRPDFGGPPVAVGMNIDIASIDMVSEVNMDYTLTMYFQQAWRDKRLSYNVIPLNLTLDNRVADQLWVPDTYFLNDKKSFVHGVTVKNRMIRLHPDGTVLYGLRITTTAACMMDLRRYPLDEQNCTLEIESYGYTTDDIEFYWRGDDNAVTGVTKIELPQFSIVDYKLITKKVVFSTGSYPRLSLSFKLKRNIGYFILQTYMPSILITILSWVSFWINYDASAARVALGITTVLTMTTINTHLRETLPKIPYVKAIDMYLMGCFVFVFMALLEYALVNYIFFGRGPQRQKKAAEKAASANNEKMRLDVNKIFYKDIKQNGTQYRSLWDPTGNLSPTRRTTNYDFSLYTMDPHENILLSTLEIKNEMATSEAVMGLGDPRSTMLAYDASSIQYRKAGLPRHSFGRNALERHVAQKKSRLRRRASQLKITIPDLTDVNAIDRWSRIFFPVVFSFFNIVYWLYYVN
T1 sequence (P18507 whole entry): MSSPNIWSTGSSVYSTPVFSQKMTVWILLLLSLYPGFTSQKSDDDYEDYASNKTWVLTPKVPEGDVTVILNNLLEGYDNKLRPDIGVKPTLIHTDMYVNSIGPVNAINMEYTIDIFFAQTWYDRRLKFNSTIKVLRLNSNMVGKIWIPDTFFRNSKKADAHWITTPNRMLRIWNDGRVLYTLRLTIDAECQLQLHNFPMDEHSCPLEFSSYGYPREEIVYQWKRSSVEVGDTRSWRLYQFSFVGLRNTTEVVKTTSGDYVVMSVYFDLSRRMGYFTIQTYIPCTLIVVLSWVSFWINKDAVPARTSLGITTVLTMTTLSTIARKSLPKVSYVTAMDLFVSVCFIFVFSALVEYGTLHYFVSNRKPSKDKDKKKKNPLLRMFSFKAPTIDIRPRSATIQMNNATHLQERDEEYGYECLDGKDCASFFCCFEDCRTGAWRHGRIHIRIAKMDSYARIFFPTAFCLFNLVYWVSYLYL
T1 sequence (P47869 whole entry): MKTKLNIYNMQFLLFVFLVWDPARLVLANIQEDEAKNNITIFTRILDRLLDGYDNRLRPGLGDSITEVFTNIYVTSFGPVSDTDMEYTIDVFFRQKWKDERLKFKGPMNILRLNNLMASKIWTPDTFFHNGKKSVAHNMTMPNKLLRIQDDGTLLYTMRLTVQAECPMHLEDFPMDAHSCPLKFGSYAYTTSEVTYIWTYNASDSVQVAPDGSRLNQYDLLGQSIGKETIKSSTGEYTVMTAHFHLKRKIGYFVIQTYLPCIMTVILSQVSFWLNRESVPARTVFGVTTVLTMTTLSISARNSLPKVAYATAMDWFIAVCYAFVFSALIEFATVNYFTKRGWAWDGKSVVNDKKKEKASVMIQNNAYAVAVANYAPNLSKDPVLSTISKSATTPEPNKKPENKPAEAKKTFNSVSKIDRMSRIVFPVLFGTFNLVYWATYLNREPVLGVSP
Sequence of 5-hydroxytryptamine receptor 7 (P34969 whole entry): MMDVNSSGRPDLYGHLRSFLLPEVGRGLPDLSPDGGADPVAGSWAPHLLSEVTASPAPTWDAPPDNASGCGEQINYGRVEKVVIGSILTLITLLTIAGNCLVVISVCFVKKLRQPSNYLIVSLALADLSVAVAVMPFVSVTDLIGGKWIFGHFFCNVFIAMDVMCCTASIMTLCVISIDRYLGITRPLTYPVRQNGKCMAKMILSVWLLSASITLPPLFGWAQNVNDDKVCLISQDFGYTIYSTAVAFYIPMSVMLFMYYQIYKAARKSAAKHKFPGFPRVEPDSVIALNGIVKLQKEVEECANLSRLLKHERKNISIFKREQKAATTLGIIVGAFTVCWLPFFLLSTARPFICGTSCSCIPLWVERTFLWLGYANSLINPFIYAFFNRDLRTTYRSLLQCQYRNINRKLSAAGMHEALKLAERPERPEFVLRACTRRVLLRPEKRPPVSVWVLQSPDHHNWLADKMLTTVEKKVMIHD
Sequence of 5-hydroxytryptamine receptor 5A (P47898 whole entry): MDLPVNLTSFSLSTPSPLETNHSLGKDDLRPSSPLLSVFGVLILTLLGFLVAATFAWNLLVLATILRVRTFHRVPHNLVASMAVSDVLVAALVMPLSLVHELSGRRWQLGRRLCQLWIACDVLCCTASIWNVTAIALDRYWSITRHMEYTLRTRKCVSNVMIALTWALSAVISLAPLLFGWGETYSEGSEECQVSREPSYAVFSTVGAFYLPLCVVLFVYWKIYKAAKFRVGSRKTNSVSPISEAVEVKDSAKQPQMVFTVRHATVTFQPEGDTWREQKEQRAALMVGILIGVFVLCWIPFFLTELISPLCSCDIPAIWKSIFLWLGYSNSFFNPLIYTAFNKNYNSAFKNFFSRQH
Sequence of 5-hydroxytryptamine receptor 6 (P50406 whole entry): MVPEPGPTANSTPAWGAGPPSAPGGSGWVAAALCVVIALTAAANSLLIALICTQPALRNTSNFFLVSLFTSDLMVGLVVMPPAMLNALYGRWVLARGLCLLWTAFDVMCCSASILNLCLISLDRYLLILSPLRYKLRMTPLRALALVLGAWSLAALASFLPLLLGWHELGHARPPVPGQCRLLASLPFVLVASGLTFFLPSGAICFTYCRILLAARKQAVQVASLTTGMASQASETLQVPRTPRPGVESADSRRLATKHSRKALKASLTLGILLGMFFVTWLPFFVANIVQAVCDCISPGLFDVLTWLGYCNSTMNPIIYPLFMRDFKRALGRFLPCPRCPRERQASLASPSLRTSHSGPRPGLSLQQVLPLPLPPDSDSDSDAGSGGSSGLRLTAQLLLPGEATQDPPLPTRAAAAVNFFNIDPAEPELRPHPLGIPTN
Sequence of Gamma-aminobutyric acid type B receptor subunit 1 (Q9UBS5 whole entry): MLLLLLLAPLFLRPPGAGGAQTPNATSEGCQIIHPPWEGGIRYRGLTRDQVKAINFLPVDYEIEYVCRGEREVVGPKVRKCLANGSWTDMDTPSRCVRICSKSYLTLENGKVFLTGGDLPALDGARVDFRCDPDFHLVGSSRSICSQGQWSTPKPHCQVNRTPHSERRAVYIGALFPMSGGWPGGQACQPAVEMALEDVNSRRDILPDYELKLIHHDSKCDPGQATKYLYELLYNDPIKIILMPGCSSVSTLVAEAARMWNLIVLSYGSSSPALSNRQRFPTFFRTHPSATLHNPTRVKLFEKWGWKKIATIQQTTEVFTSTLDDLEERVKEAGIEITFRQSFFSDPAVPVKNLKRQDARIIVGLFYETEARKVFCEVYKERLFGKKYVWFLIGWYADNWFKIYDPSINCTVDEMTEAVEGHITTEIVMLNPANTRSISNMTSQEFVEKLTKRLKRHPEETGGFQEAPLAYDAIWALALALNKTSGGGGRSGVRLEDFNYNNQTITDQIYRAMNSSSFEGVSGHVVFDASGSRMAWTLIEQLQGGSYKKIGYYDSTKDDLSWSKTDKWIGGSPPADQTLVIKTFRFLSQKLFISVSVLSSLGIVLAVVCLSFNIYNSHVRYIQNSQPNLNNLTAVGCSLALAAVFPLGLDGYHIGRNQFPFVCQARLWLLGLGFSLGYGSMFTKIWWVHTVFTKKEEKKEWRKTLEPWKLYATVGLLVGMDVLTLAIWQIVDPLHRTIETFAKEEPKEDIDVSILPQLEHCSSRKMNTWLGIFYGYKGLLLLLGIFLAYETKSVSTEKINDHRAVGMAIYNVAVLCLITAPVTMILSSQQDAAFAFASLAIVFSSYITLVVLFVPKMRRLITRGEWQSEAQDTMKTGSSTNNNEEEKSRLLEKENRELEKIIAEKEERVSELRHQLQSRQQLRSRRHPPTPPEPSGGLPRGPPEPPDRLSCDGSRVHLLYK
Sequence of Rod cGMP-specific 3',5'-cyclic phosphodiesterase subunit alpha (P16499 whole entry): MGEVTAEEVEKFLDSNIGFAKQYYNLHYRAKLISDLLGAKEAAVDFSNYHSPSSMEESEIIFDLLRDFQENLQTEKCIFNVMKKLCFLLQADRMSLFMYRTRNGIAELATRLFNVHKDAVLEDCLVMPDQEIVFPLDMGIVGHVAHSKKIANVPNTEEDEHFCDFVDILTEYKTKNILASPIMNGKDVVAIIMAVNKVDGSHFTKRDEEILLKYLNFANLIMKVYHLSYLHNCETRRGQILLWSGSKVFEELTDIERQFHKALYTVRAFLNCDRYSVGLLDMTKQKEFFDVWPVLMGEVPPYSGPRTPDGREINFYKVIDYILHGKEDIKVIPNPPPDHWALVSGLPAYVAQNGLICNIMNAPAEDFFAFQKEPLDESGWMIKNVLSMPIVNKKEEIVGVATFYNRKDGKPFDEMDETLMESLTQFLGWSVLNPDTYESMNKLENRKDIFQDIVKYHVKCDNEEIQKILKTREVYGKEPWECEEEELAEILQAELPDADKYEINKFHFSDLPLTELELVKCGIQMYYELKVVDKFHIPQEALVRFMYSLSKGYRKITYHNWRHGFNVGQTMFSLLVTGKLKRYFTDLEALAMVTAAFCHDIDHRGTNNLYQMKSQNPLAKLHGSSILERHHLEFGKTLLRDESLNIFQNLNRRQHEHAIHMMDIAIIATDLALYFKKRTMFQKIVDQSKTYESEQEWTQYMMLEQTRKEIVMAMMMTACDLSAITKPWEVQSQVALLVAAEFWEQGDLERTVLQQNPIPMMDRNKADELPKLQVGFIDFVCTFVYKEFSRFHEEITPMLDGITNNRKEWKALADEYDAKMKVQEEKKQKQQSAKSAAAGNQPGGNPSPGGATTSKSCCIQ

Q: How did the AC50 [1] turn out when `CO/N=C(\C(=O)N[C@@H]1C(=O)N2C(C(=O)[O-])=C(C[n+]3cccc4c3CCC4)CS[C@H]12)c1csc(N)n1` [CEFPIROME] was run?
A: > 30 µM

Q: What about the AC50 [2] of the same compound?
A: > 30 µM

Q: With `CC(C)=CCOc1ccc(/C=C/C(=O)c2ccc(OCC=C(C)C)cc2OCC(=O)O)cc1` [SOFALCONE] as the compound, how does the AC50 (Androgen receptor [3]) read?
A: 6.1 µM

Q: And the AC50 (Androgen receptor [4])?
A: > 30 µM

Q: `C[C@]12CC[C@H](O)CC1=CC[C@@H]1[C@@H]2CC[C@]2(C)C(c3cccnc3)=CC[C@@H]12` [ABIRATERONE] was tested. Which AC50 (Androgen receptor [5]) did it give?
A: > 30 µM

Q: With `CCn1cc(C(=O)O)c(=O)c2cc(F)c(N3CCNCC3)nc21` [ENOXACIN] as the compound, how does the AC50 [6] read?
A: > 10 µM

Q: What about the AC50 [7] of the same compound?
A: > 10 µM

Q: What about the AC50 [8] of the same compound?
A: > 10 µM

Q: And the AC50 [9]?
A: > 10 µM

Q: What about the AC50 [10] of the same compound?
A: > 10 µM

Q: What about the AC50 [11] of the same compound?
A: > 10 µM

Q: For `c1ccc2c(CC3=NCCN3)cccc2c1` [NAPHAZOLINE], which AC50 [12] is on record?
A: 0.0087 µM

Q: For `Oc1c(I)cc(Cl)c2cccnc12` [CLIOQUINOL], which AC50 [13] is on record?
A: > 30 µM

Q: What about the AC50 [1] of the same compound?
A: > 30 µM

Q: What about the AC50 [2] of the same compound?
A: > 30 µM

Q: Which AC50 (Androgen receptor [5]) does the source give for `CN(C)c1cc(NC(=O)CNC(C)(C)C)c(O)c2c1C[C@H]1C[C@H]3[C@H](N(C)C)C(O)=C(C(N)=O)C(=O)[C@@]3(O)C(O)=C1C2=O` [TIGECYCLINE] here?
A: > 30 µM

Q: With `C[C@]1(COc2ccc(N3CCC(Oc4ccc(OC(F)(F)F)cc4)CC3)cc2)Cn2cc([N+](=O)[O-])nc2O1` as the compound, how does the AC50 (Androgen receptor [5]) read?
A: > 30 µM

Q: `COc1ccc2c(c1)[C@]13CCCC[C@@H]1[C@H](C2)N(C)CC3` [DEXTROMETHORPHAN] was tested. Which AC50 [14] did it give?
A: > 30 µM

Q: `O=C(O)CSCC(=O)NC1CCSC1=O` (stereo not given) [ERDOSTEINE] was tested. Which AC50 (Androgen receptor [3]) did it give?
A: > 30 µM

Q: What about the AC50 (Androgen receptor [4]) of the same compound?
A: > 30 µM

Q: For `CCCCCCCC(=O)N[C@H](CN1CCCC1)[C@H](O)c1ccc2c(c1)OCCO2`, which AC50 [13] is on record?
A: > 30 µM

Q: Which AC50 [1] does the source give for `O=C(CCCN1CCC2(CC1)C(=O)NCN2c1ccccc1)c1ccc(F)cc1` [SPIPERONE] here?
A: > 30 µM

Q: And the AC50 [2]?
A: > 30 µM

Q: And the AC50 [12]?
A: 17 µM

Q: For `O=C(Nc1nc(-c2cc(Cl)cs2)c(N2CCN(C3CCCCC3)CC2)s1)c1cnc(N2CCC(C(=O)O)CC2)c(Cl)c1` [AVATROMBOPAG], which AC50 [13] is on record?
A: > 30 µM

Q: What about the AC50 [6] of the same compound?
A: > 10 µM

Q: What about the AC50 [7] of the same compound?
A: > 10 µM

Q: What about the AC50 [8] of the same compound?
A: > 10 µM

Q: What about the AC50 [9] of the same compound?
A: > 10 µM

Q: What about the AC50 [10] of the same compound?
A: > 10 µM

Q: And the AC50 [11]?
A: > 10 µM

Q: For `C1CNCCN1` [PIPERAZINE], which AC50 [13] is on record?
A: > 30 µM

Q: How did the AC50 (Androgen receptor [5]) turn out when `OCCN1CCN(CC/C=C2/c3ccccc3Sc3ccc(Cl)cc32)CC1` [ZUCLOPENTHIXOL] was run?
A: > 10 µM

Q: For `CCC(=O)O[C@@H]1CC(=O)O[C@H](C)C/C=C/C=C/[C@H](OC(C)=O)[C@H](C)C[C@H](CC=O)[C@H](O[C@@H]2O[C@H](C)[C@@H](O[C@H]3C[C@@](C)(OC(C)=O)[C@@H](OC(=O)CC)[C@H](C)O3)[C@H](N(C)C)[C@H]2O)[C@H]1OC` [MIOCAMYCIN], which AC50 [13] is on record?
A: > 30 µM

Q: For `O=c1oc2ccccc2c(O)c1Cc1c(O)c2ccccc2oc1=O` [DICUMAROL], which AC50 (Androgen receptor [5]) is on record?
A: > 10 µM

Q: Which AC50 [14] does the source give for `O=C(CCCN1CC=C(n2c(=O)[nH]c3ccccc32)CC1)c1ccc(F)cc1` [DROPERIDOL] here?
A: 49 µM

Q: `CO[C@@]1(NC(=O)CSCC#N)C(=O)N2C(C(=O)O)=C(CSc3nnnn3C)CS[C@@H]21` [CEFMETAZOLE] was tested. Which AC50 [2] did it give?
A: > 30 µM

Q: For `N=C(N)c1ccc2cc(OC(=O)c3ccc(N=C(N)N)cc3)ccc2c1` [NAFAMOSTAT], which AC50 (Androgen receptor [4]) is on record?
A: 12 µM

Q: `CN(C)C(=O)Oc1cc(OC(=O)N(C)C)cc(C(O)CNC(C)(C)C)c1` (stereo not given) [BAMBUTEROL] was tested. Which AC50 (Androgen receptor [3]) did it give?
A: > 30 µM

Q: And the AC50 (Androgen receptor [4])?
A: > 30 µM
